Where two headings read alike, the source gives them in different places.
Experiments:
Boophilus microplus = Boophilus microplus test (BOOPMI injection); assay type: in vivo; settings: 20 μg animal; injection into the abdomen; after 7 days, laying of fertile eggs
Description: Boophilus microplus Test (BOOPMI Injection) Solvent: dimethyl sulphoxide To prepare an appropriate active ingredient formulation, 10 mg of active ingredient are mixed with 0.5 ml of solvent and the concentrate is diluted with solvent to the desired concentration. The active ingredient solution is injected into the abdomen (Boophilus microplus), and the animals are transferred into dishes and stored in a climate-controlled room. The efficacy is assessed by laying of fertile eggs. After 7 days, the efficacy in % is determined. 100% means that none of the ticks has laid any fertile eggs.

[1] = system: larvae of the mustard beetle (Phaedon cochleariae); test: Phaedon test (PHAECO spray treatment); assay type: in vivo; settings: Chinese cabbage discs, after 7 days; for efficacy: 500 g/ha; for pest or weed control at 500 g/ha: Phaedon cochleariae, 168 h, read-out: efficacy
Description: Phaedon Test ([…] Spray Treatment) Solvent: 78.0 parts by weight of acetone • • 1.5 parts by weight of dimethylformamide Emulsifier: 0.5 part by weight of alkylaryl polyglycol ether To prepare an appropriate active ingredient preparation, 1 part by weight of active ingredient is mixed with the stated amounts of solvent and emulsifier, and the concentrate is diluted with emulsifier-containing water to the desired concentration. Discs of Chinese cabbage (Brassica pekinensis) are sprayed with an active ingredient preparation of the desired concentration and, after drying, populated with larvae of the mustard beetle (Phaedon cochleariae). After 7 days, the efficacy in % is determined. 100% means that all beetle larvae have been killed; 0% means that none of the beetle larvae have been killed.

[2] = system: red spider mite (Tetranychus urticae); test: Tetranychus test, OP-resistant (TETRUR spray treatment); assay type: in vivo; settings: bean leaf discs, after 6 days
Description: Tetranychus Test, OP-Resistant (TETRUR Spray Treatment)
Solvent: 78.0 parts by weight of acetone • • 1.5 parts by weight of dimethylformamide
Emulsifier: 0.5 part by weight of alkylaryl polyglycol ether
To prepare an appropriate active ingredient preparation, 1 part by weight of active ingredient is mixed with the stated amounts of solvent and emulsifier, and the concentrate is diluted with emulsifier-containing water to the desired concentration. Discs of bean leaves (Phaseolus vulgaris) infested by all stages of the red spider mite (Tetranychus urticae) are sprayed with an active ingredient preparation of the desired concentration. After 6 days, the efficacy in % is determined. 100% means that all spider mites have been killed; 0% means that none of the spider mites have been killed.

[3] = logP by HPLC on reversed-phase columns (C 18), EEC Directive 79/831 Annex V.A8; assay type: physicochemical; settings: for chromatographic logP: reversed-phase C18 HPLC column, read-out: log P
Excerpt: [table] The calibration is effected with unbranched alkan-2-ones (having 3 to 16 carbon atoms) with known logP values (logP values determined on the basis of the retention times by linear interpolation between two successive alkanones).

[4] = system: caterpillars of the armyworm (Spodoptera frugiperda); test: Spodoptera frugiperda test (SPODFR spray treatment); assay type: in vivo; settings: maize leaf discs, after 7 days; for efficacy: 500 g/ha; for pest or weed control at 500 g/ha: Spodoptera frugiperda, foliar, 168 h, read-out: efficacy
Description: Spodoptera frugiperda Test (SPODFR Spray Treatment) Solvent: 78.0 parts by weight of acetone • • 1.5 parts by weight of dimethylformamide Emulsifier: 0.5 part by weight of alkylaryl polyglycol ether To prepare an appropriate active ingredient preparation, 1 part by weight of active ingredient is mixed with the stated amounts of solvent and emulsifier, and the concentrate is diluted with emulsifier-containing water to the desired concentration. Discs of maize leaves (Zea mays) are sprayed with an active ingredient preparation of the desired concentration and, after drying, populated with caterpillars of the armyworm (Spodoptera frugiperda). After 7 days, the efficacy in % is determined. 100% means that all caterpillars have been killed; 0% means that none of the caterpillars have been killed.

[5] = * LC-MS, acidic range pH 2.7, 0.1% aqueous formic acid and acetonitrile
[6] = pH 2.7, * LC-MS, acidic range pH 2.7, 0.1% aqueous formic acid and acetonitrile

Compound	efficacy [1] [%]	efficacy ([2]; 500 g/ha) [%]	efficacy [4] [%]	chromatographic logP [3, 6]	also measured
CCC(OC)c1nn(-c2nccnc2OC)c(N)c1-c1ccc(Cl)c(Cl)c1 (centres unmarked) [Ex. 3]	100	100	–	–	efficacy (Boophilus microplus): 100%
CCCOc1nccnc1-n1nc(C(F)(F)F)c(-c2ccc(Br)cc2)c1N [Ex. 4]	–	–	–	–	chromatographic logP ([3]; pH 2.3, ** acidic range pH 2.3, 0.1% aqueous phosphoric acid and acetonitrile): 4.11; pest or weed control at 500 g/ha [1]: 83%; pest or weed control at 500 g/ha ([2]; Tetranychus urticae, foliar, 144 h, 500 g/ha, read-out: efficacy): 90%
CC(C)Oc1nccnc1-n1nc(C(F)(F)F)c(-c2cc(Cl)cc(C(F)(F)F)c2)c1N [Ex. 13]	83	–	–	–	–
Cc1nccnc1-n1nc(C(F)(F)F)c(-c2cc(Cl)cc(C(F)(F)F)c2)c1N [Ex. 23]	100	100	–	–	–
N#Cc1nccnc1-n1nc(C(F)(F)F)c(-c2cc(Cl)cc(C(F)(F)F)c2)c1N [Ex. 27]	100	–	–	–	–
CCOc1nccnc1-n1nc(C(F)(F)F)c(-c2cc(Cl)cc(C(F)(F)F)c2)c1N(Cc1ccccc1)Cc1ccccc1 [Ex. 34]	–	–	–	–	log P [3, 5]: 7*
CCOc1nccnc1-n1nc(C(F)(F)F)c(-c2cc(Cl)cc(C(F)(F)F)c2)c1NCc1ccccc1 [Ex. 35]	–	90	–	–	–
CCOc1nccnc1-n1nc(C(F)(F)F)c(-c2cc(Cl)cc(C(F)(F)F)c2)c1N(Cc1ccc(OC)cc1)Cc1ccc(OC)cc1 [Ex. 43]	100	–	100	–	–
Nc1c(-c2cc(Cl)cc(C(F)(F)F)c2)c(C(F)(F)F)nn1-c1nccnc1-n1ccnc1 [Ex. 44]	100	–	100	–	–
COc1nccnc1-n1nc(C(F)(F)F)c(-c2ccccn2)c1N [Ex. 49]	–	–	–	2.59	–
COc1nccnc1-n1nc(C(F)(F)F)c(-c2cncc(Br)c2)c1N [Ex. 50]	–	–	–	2.62	–
COc1nccnc1-n1nc(C(F)(F)F)c(-c2ncc(Cl)cc2Cl)c1N [Ex. 52]	–	–	–	2.94	pest or weed control at 500 g/ha [1]: 100%
COc1nccnc1-n1nc(C(F)(F)F)c(-c2ccc(Cl)cn2)c1N [Ex. 53]	–	–	–	3.55	–
COc1nccnc1-n1nc(C(F)(F)C(F)(F)F)c(-c2ccc(Cl)cn2)c1N [Ex. 54]	–	–	–	4.17	–
COc1nccnc1-n1nc(C(F)(F)F)c(-c2cccnc2Cl)c1N [Ex. 57]	–	–	–	2.19	–
COc1nccnc1-n1nc(C(F)(F)C(F)(F)F)c(-c2ccc(Cl)nc2)c1N [Ex. 58]	–	–	–	3.14	–
COc1nccnc1-n1nc(C(F)(F)C(F)F)c(-c2cc(Cl)c3c(c2)OCO3)c1N [Ex. 65]	100	90	100	–	–
COc1nccnc1-n1nc(C(F)(F)C(F)F)c(-c2cc(Cl)c3c(c2)CCO3)c1N [Ex. 66]	100	90	100	–	–
COc1nccnc1-n1nc(C2CC2)c(-c2cc(Cl)c3c(c2)OCO3)c1N [Ex. 79]	–	–	–	2.79	pest or weed control at 500 g/ha [1]: 100%; pest or weed control at 500 g/ha [4]: 100%
COc1nccnc1-n1nc(C(F)(F)F)c(-c2cc(Cl)c(Cl)c(C(F)(F)F)c2)c1N [Ex. 86]	100	–	100	–	–
COc1nccnc1-n1nc(C(F)(F)F)c(-c2cc(Cl)c(Cl)c(Cl)c2)c1N [Ex. 87]	–	–	–	4.35	pest or weed control at 500 g/ha [1]: 100%; pest or weed control at 500 g/ha [4]: 100%
C=C(C)CNc1c(-c2cc(Cl)cc(C(F)(F)F)c2)c(C(F)(F)F)nn1-c1nccnc1OC [Ex. 96]	–	100	–	–	–
COc1nccnc1-n1nc(C(F)(F)C(F)F)c(-c2cc(Cl)c(Cl)c(Cl)c2)c1N [Ex. 116]	100	90	100	–	–
COc1nccnc1-n1nc(C(F)(F)F)c(-c2cc(Cl)c(N(C)C)c(Cl)c2)c1N [Ex. 121]	100	–	100	–	efficacy ([2]; 100 g/ha): 80%

Compound	efficacy [1] [%]	efficacy ([2]; 500 g/ha) [%]	efficacy [4] [%]	chromatographic logP [3, 6]	also measured
COc1nccnc1-n1nc(C(F)(F)F)c(-c2ccc(N(C)C)c(Cl)c2)c1N [Ex. 122]	100	–	100	–	–
COc1nccnc1-n1nc(C(F)(F)F)c(-c2cc(Cl)c(N(C)C)c(C(F)(F)F)c2)c1N [Ex. 123]	100	80	100	–	–
COc1nccnc1-n1nc(C(F)(F)F)c(-c2cc(F)c(OC)c(Cl)c2)c1N [Ex. 124]	100	90	100	–	log P ([3]; *** LC-MS, neutral range pH 7.8, 0.001 molar aqueous ammonium hydrogencarbonate and acetonitrile): 3.5***;
COc1cc(-c2c(C(F)(F)F)nn(-c3nccnc3OC)c2N)ccc1OCC(F)(F)F [Ex. 125]	100	90	–	–	–
CCOc1cc(-c2c(C(F)(F)F)nn(-c3nccnc3OC)c2N)ccc1OCC(F)(F)F [Ex. 127]	100	90	–	–	–
COc1ccc(-c2c(C(F)(F)F)nn(-c3nccnc3OC)c2N)c(Br)c1OC [Ex. 128]	–	–	–	2.87	–
Nc1c(-c2cc(Cl)cc(C(F)(F)F)c2)c(C(F)(F)F)nn1-c1nccnc1C(F)(F)F [Ex. 130]	100	–	100	–	–
COc1cc(-c2c(C(F)(F)F)nn(-c3nccnc3OC)c2N)cc(Cl)c1OCC(F)(F)F [Ex. 134]	100	–	100	–	–
COc1nccnc1-n1nc(C(F)(F)F)c(-c2ccccc2Br)c1N [Ex. 137]	–	–	–	3	–
COc1nccnc1-n1nc(C(F)(F)F)c(-c2ccccc2I)c1N [Ex. 138]	–	–	–	3.09	–
CCOc1cc(-c2c(C(F)(F)F)nn(-c3nccnc3OC)c2N)cc(Br)c1OCC(F)(F)F [Ex. 140]	100	–	100	–	log P [3, 5]: 4.3*
COc1nccnc1-n1nc(C(F)(F)F)c(-c2c(F)ccc(Cl)c2Cl)c1N [Ex. 142]	–	–	–	3.31	pest or weed control at 500 g/ha [1]: 100%
COc1nccnc1-n1nc(C(F)(F)F)c(-c2cc3c(cc2Cl)OCO3)c1N [Ex. 143]	–	–	–	2.86	–
CCOc1cc(-c2c(C(F)(F)F)nn(-c3nccnc3OC)c2N)cc(Cl)c1OCC(F)(F)F [Ex. 144]	100	100	100	–	–
COc1nccnc1-n1nc(C(F)(F)F)c(-c2ccc3c(c2)CCC(C)(C)O3)c1N [Ex. 145]	100	–	–	–	–
COc1cc(-c2c(C(F)(F)F)nn(-c3nccnc3OC)c2N)cc(I)c1OC [Ex. 147]	–	–	–	3.47	–
COc1cc(-c2c(C(F)(F)C(F)F)nn(-c3nccnc3OC)c2N)cc(C(F)(F)F)c1OC [Ex. 157]	100	100	100	–	–
CCc1nn(-c2nccnc2OC)c(N)c1-c1cc(Cl)c(OC)c(OC)c1 [Ex. 161]	–	–	–	2.66	pest or weed control at 500 g/ha [1]: 100%; pest or weed control at 500 g/ha [4]: 100%
COc1nccnc1-n1nc(C(F)(F)F)c(-c2cc(F)c(Cl)cc2Cl)c1N [Ex. 166]	100	90	–	–	–
COc1nccnc1-n1nc(C(F)(F)F)c(-c2cc3c(c(C(F)(F)F)c2)OCCO3)c1N [Ex. 173]	100	90	100	–	–
COc1cc(-c2c(C(F)(F)F)nn(-c3nccnc3OC)c2N)cc(I)c1OC [Ex. 176]	–	–	–	–	log P [3, 5]: 3.87*
CCOc1nccnc1-n1nc(CC)c(-c2cc(Br)c3c(c2)OCO3)c1N [Ex. 177]	–	–	–	3.03	–
CCc1nn(-c2nccnc2OC)c(N)c1-c1cc(Br)c2c(c1)OCO2 [Ex. 178]	–	–	–	2.65	–
COc1nccnc1-n1nc(C(F)(F)F)c(-c2cc(Cl)cc(C(F)(F)F)c2)c1N(C)C [compound 107, 1-(3-methoxypyrazin-2-yl)-4-[3-chloro-5-(trifluoromethyl)phenyl]-3-(trifluoromethyl)-1H-pyrazole-5-dimethylamine]	83	–	–	–	log P [3, 5]: 5.11*

From patent publication US8513260B2, “Pyrazinylpyrazoles” (Bayer CropScience AG, priority 2009, dated 2013)
